# In patent US12181409B2, “Cell imaging composition and cellular material imaging method using same” (EWHA UNIVERSITY-INDUSTRY COLLABORATION FOUNDATION, priority 2019, dated 2024):
# Legend:
# [1] = biological target: T1, HSA (Homo sapiens, UniProt P02768); assay: Fluorescent imaging of various proteins; format: biochemical; conditions: 3 μM Compound 1, various proteins in DMSO, 0.5 hours and 1.5 hours
# Protocol: FIGS. 14D(i) to 14D(vi) show fluorescence imaging of proteins measured after incubating 3 μM Compound 1 with various proteins in DMSO for 0.5 hours and 1.5 hours, respectively (λex=410 nm), according to an example of the present disclosure.
# After 3 μM Compound 1 and various types of proteins in DMSO were incubated for 0.5 hours and 1.5 hours, fluorescence intensity profiles and fluorescent images depending on the types of proteins were compared.
# [2] = test system: HeLa cells; assay: Cytotoxicity test (MTT); format: cell-based; conditions: 30 μM Compound 1, 24 hours, MTT 4 hours, untreated sample = 100%
# Protocol: Referring to FIG. 13, HeLa cells were treated with various concentrations of Compound 1 for 24 hours, cultured in a medium containing MTT for 4 hours, and then the viability of the cells depending on the concentration of Compound 1 was checked. When the absorbance of a sample not treated with Compound 1 was set to 100%, it was confirmed that the cells treated with 30 μM Compound 1 survived about 80%.
# [3] = test system: mitochondria in HeLa cells; assay: Colocalization of Compound 1 with MitoTracker Deep Red, confocal microscopy; format: cell-based; conditions: 10 μM Compound 1 and 50 nM MitoTracker Deep Red, 30 minutes
# Protocol: FIGS. 10A to 10C show fluorescence images of mitochondria in a cell by Compound 1 (excitation at 405 nm/emission at 490 nm to 590 nm) (FIG. 10A), Mitotracker Deep Red (excitation at 635 nm/emission at 655 nm to 755 nm) (FIG. 10B), and Compound 1 and Mitotracker Deep Red merged (FIG. 10C), respectively, acquired by confocal microscopy after HeLa cells were incubated with 10 μM Compound 1 and 50 nM Mitotracker Deep Red for 30 min, according to an example of the present disclosure.
# Referring to FIGS. 10A to 10E, HeLa cells were incubated with 10 μM Compound 1 and 50 nM MitoTracker Deep Red for 30 minutes and a fluorescent image of the mitochondria in the cells was obtained by confocal microscopy.
# [4] = test system: HeLa cells; assay: Colocalization of Compound 1 with ER-Tracker Red, confocal microscopy; format: cell-based; conditions: 10 μM Compound 1 and 1 μM ER-Tracker Red, 30 minutes
# Protocol: FIGS. 11A to 11C show fluorescence images of mitochondria in a cell by Compound 1 (excitation at 405 nm/emission at 490 nm to 590 nm) (FIG. 11A), ER(endoplasmic reticulum)-tracker Red (excitation at 559 nm/emission at 576 nm to 675 nm) (FIG. 11B), and Compound 1 and ER-tracker Red merged (FIG. 11C), respectively, acquired by confocal microscopy after HeLa cells were incubated with 10 μM Compound 1 and 1 μM ER-tracker Red for 30 min, according to an example of the present disclosure.
# Referring to FIGS. 11A to 11C, HeLa cells were incubated with 10 μM Compound 1 and 1 μM ER-Tracker Red for 30 minutes and a fluorescent image of the mitochondria in the cells was obtained by confocal microscopy.
# [5] = biological target: T1, HSA; assay: Fluorescent imaging of HSA protein at various pH values; format: biochemical; conditions: buffer solutions at pH 7.4, pH 7.5 and pH 8.5
# Protocol: After Compound 1 and HSA protein were incubated in buffer solutions at various pH values, fluorescence intensity profiles and fluorescent images depending on pH were compared.
# T1 sequence (P02768 25-609): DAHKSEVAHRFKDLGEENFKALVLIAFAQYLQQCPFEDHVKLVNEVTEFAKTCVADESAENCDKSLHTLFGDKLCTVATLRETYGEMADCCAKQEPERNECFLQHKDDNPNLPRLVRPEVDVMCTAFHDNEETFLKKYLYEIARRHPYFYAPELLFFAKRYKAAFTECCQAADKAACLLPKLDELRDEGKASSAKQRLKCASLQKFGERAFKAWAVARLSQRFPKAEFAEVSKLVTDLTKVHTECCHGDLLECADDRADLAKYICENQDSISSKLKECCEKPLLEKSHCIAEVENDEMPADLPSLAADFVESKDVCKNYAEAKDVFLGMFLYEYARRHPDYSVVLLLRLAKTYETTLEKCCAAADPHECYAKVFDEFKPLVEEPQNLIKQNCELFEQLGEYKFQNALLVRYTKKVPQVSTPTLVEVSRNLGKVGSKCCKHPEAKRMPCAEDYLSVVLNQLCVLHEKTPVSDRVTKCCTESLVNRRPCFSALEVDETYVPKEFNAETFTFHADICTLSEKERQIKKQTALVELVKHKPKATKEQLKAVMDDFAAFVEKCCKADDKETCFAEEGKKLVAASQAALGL
compound,measurement,setting,value
O=C(c1ccccc1)c1ccccc1NCc1ccccc1B(O)O [Compound 1],fluorescent imaging performance and selectivity among proteins,[1],fluorescent imaging performance and selectivity specific to HSA
same,cell viability (survival),[2],about 80%
same,Pearson correlation coefficient,[3],0.81±0.02
same,degree of agreement of fluorescent image,[3],about 81%
same,Pearson correlation coefficient,[4],0.85±0.01
same,degree of agreement of fluorescent image,[4],about 85%
same,fluorescent imaging performance for HSA depending on pH,[5],fluorescent imaging performance specific to HSA protein
